PMC2686105, “Role of the stage-regulated nucleoside transporter TbNT10 in differentiation and adenosine uptake in Trypanosoma brucei” (Molecular and Biochemical Parasitology, 2007)

Biological target: T1, TbNT10 (Trypanosoma brucei, UniProt Q38EK0)
T1 construct: gene Tb09.160.5480; endogenous in procyclic forms and re-expressed (addback clone A) from an EP procyclin locus in the TbNT10 null mutant
Assay: 3H-adenosine uptake; wild type, null mutant and addback procyclic cells
Type: cell-based
Settings: procyclic forms; 5 min; labelled compound; transporter activity judged by null mutant versus addback

T1 sequence (Q38EK0 entry or part of it): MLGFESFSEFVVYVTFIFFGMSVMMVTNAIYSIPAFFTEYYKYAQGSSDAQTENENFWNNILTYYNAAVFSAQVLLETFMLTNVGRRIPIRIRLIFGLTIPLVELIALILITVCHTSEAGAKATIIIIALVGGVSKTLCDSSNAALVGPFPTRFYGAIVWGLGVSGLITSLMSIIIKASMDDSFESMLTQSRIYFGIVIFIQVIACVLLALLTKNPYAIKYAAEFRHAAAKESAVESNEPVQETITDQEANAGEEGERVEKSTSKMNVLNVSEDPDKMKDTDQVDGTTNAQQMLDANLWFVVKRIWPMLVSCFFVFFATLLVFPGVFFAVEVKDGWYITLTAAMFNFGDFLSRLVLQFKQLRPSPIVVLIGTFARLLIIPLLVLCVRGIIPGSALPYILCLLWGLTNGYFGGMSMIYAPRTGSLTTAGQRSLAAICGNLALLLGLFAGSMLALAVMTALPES

**Q.** Nc1ncnc2c1ncn2[C@@H]1O[C@H](CO)[C@@H](O)[C@H]1O [adenosine] was tested. Which “3H-adenosine uptake; wild type, null mutant and addback procyclic cells” value did it give?
**A.** it is the main transporter for adenosine in this life cycle stage
